For assay [1], the system named is C6 (Central Nervous System). Briefly: In vitro tumor cell growth inhibition, MTS dye conversion assay, C6. Format: cell-based, Human. The settings on record: Rattus norvegicus, 4-6 days, read-out: IC50 (concentration associated with 50% inhibition of cell growth). Here is the method: (§1) The ability of the compounds of formula I to inhibit tumor cell growth was determined using the assay described in Cory A. H et al., Cancer Commun. 3(7):207-12, 1991.
(§2) Briefly, the assay is a […] method for determining the number of viable cells in proliferation or chemosensitivity assays.
(§3) Human tumor cell lines were propagated under sterile conditions in RPMI 1640 (CellGro) with […] fetal bovine serum (Gibco BRL), 2 mM L-glutamine, and sodium bicarbonate (complete medium). The cells were then incubated at 37° C. in HEPA-filtered Sterilcult CO2 tissue culture incubators (Forma) with 5% CO2 and 95% hymidity. Each cell line was subcultured weekly or biweekly. […]
(§4) The test compounds (100 μL), dissolved in DMSO (Sigma, cell culture grade) and diluted with complete medium, were added to 96-well plates containing attached cellular monolayers (5000 cells/well in 100 μL). […] Antiproliferative effects were assessed with the 3-(4,5-dimethylthiazol-2-yl)-5-(3-carboxymethoxyphenyl)-2-(4-sulfophenyl)-2H-tetrazolium, inner salt (MTS dye) conversion assay. […] The absorbance of formazan in each monolayer was measured at 490 nm on a Coulter microplate reader at 2 and 4 hours after the addition of the MTS solution.
(§5) Growth inhibition data are expressed as a percentage of absorbance detected in control wells and is proportional to the number of viable cells in the culture. […]
A general note: Tetrazolium assays rely on reduction of a dye to a coloured formazan, in cell work by metabolically active cells.

The test system of the next assay is EKVX (Lung). Briefly: In vitro tumor cell growth inhibition, MTS dye conversion assay, EKVX. It counts as cell-based. To be noted: Homo sapiens, 4-6 days, read-out: IC50 (concentration associated with 50% inhibition of cell growth). The method, then:
as §1, §2, §3, §4, §5

In assay [2] the test system is OVCAR-5 ovarian cancer cell line. As to the kind of experiment: In vitro tumor cell growth inhibition, MTS dye conversion assay, OVCAR-5. It counts as cell-based, Human. To be noted: Ovary, 4-6 days. Here is the method:
as §1, §2, §3, §4, §5

The subject of another assay is CCRF-CEM (Leukemia). As to the kind of experiment: In vitro tumor cell growth inhibition, MTS dye conversion assay, CCRF-CEM. It counts as cell-based. The settings on record: Homo sapiens, 4-6 days, read-out: IC50 (concentration associated with 50% inhibition of cell growth). Here is the method: as §1, §2, §3, §4, §5
In another assay the test system is MCF7 (Breast). Briefly: In vitro tumor cell growth inhibition, MTS dye conversion assay, MCF7. It counts as cell-based. To be noted: Homo sapiens, 4-6 days, read-out: IC50 (concentration associated with 50% inhibition of cell growth). Here is the method: as §1, §2, §3, §4, §5
In assay [3] the test system is SW-620 colon cancer cell line. As to the kind of experiment: In vitro tumor cell growth inhibition, MTS dye conversion assay, SW-620. It counts as cell-based, Human. The settings on record: 4-6 days. Here is the method: as §1, §2, §3, §4, §5
The mark [4] stands for this setting: Homo sapiens, read-out: IC50 (concentration associated with 50% inhibition of cell growth).

For `Cc1cc(NC(=O)C(C#N)C(=O)C2CC2)ccc1C(F)(F)F` (centres unmarked) [laflunimus, N-(3-Methyl-4trifluoromethylphenyl) 2-Cyano-2-(cyclopropylcarbonyl)acetamide], the IC50 amounted to 12 µM in assay [1]; 14 µM with EKVX (Lung); 13 µM in assay [2] (setting [4]); 28 µM in the assay with CCRF-CEM (Leukemia); 13 µM in the assay on MCF7 (Breast); 6 µM in assay [3] (setting [4]).
Take `Cc1oncc1C(=O)Nc1ccc(C(F)(F)F)cc1` [lefunomide, 5-methylisoxazole-4-carboxylic acid-(4-trifluromethyl)-anilide, reference compound]: the “IC50 (concentration associated with 50% inhibition of cell growth)” value in assay [2] and in assay [3] was “did not achieve IC50 effects” throughout.

(Values after patent US6566395B1, “Methods of treating proliferative disorders” (BioMedicines, Inc., priority 1999, dated 2003).)
